Data reported in ChEMBL document CHEMBL1201862, “PubChem BioAssay data set” (2004).
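96-well plates; 48 h exposure; 5 concentrations. Endpoints by linear interpolation between flanking doses. Not reached: highest tested concentration assigned. GI50: concentration for 50% inhibition of growth.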 Calls of active or inactive are those of the source. Cut-off read from the data, not from the text of the source: active = GI50 up to about 1.1 µM and inactive = higher.

Experiments:
Experiment in all cases: inhibition of tumour cell growth, NCI panel, 48 h
HCC 2998 = system: HCC 2998
DU-145 = system: DU-145
HL-60 = system: HL-60
HT-29 = system: HT-29
CCRF-CEM = system: CCRF-CEM
SK-MEL-5 = system: SK-MEL-5
UACC-257 = system: UACC-257
SNB-19 = system: SNB-19
OVCAR-3 = system: OVCAR-3
Hs-578T = system: Hs-578T
IGROV-1 = system: IGROV-1
MDA-MB-231 = system: MDA-MB-231
OVCAR-8 = system: OVCAR-8
SF-268 = system: SF-268
ACHN = system: ACHN
NCI-H460 = system: NCI-H460
NCI-H522 = system: NCI-H522
SF-295 = system: SF-295
MCF7 = system: MCF7
TK-10 = system: TK-10

SMILES	GI50 (HCC 2998)	GI50 (DU-145)	GI50 (HL-60)	GI50 (HT-29)	GI50 (CCRF-CEM)	GI50 (SK-MEL-5)	GI50 (UACC-257)	GI50 (SNB-19)	GI50 (OVCAR-3)	GI50 (Hs-578T)	GI50 (IGROV-1)	GI50 (MDA-MB-231)	GI50 (OVCAR-8)	GI50 (SF-268)	GI50 (ACHN)	GI50 (NCI-H460)	GI50 (NCI-H522)	GI50 (SF-295)	GI50 (MCF7)	GI50 (TK-10)
CCN(CC)c1ccc2cc(C(N)=O)c(=N)oc2c1	5.36 µM (inactive)	40.9 µM (inactive)	36.5 µM (inactive)	51.5 µM (inactive)	31.2 µM (inactive)	32.5 µM (inactive)	> 100 µM (inactive)	42.1 µM (inactive)	31.6 µM (inactive)	16.3 µM (inactive)	21.1 µM (inactive)	32.1 µM (inactive)	50 µM (inactive)	42.3 µM (inactive)	32.7 µM (inactive)	27 µM (inactive)				
O=C1C(F)=CC(COC(c2ccccc2)(c2ccccc2)c2ccccc2)OC1n1cc(F)c(=O)[nH]c1=O (stereo unspecified)	3.54 µM (inactive)		0.592 µM (active)	0.412 µM (active)	0.319 µM (active)	1.35 µM (inactive)	1.96 µM (inactive)	5.09 µM (inactive)	1.48 µM (inactive)	4.24 µM (inactive)	1.46 µM (inactive)	3.26 µM (inactive)	1.87 µM (inactive)	2.9 µM (inactive)	1.64 µM (inactive)	2.62 µM (inactive)	1.61 µM (inactive)	2.2 µM (inactive)	2.07 µM (inactive)	1.34 µM (inactive)
COc1ccccc1NCc1nnc(CCCCCCCCc2nnc(CNc3ccccc3OC)o2)o1	> 100 µM (inactive)	> 100 µM (inactive)		> 100 µM (inactive)	> 100 µM (inactive)	> 100 µM (inactive)	> 100 µM (inactive)	> 100 µM (inactive)	> 100 µM (inactive)	> 100 µM (inactive)		> 100 µM (inactive)	> 100 µM (inactive)	> 100 µM (inactive)	> 100 µM (inactive)	> 100 µM (inactive)	> 100 µM (inactive)	> 100 µM (inactive)	> 100 µM (inactive)	> 100 µM (inactive)
O=C1CC2(CCN(Cc3ccccc3)CC2)C(=O)N1N1CCCCC1		> 100 µM (inactive)	> 100 µM (inactive)	> 100 µM (inactive)		> 100 µM (inactive)	> 100 µM (inactive)	> 100 µM (inactive)	> 100 µM (inactive)	> 100 µM (inactive)	> 100 µM (inactive)	> 100 µM (inactive)	> 100 µM (inactive)	> 100 µM (inactive)	> 100 µM (inactive)	> 100 µM (inactive)	> 100 µM (inactive)	> 100 µM (inactive)	> 100 µM (inactive)	> 100 µM (inactive)
C=CC(CBr)CCC(Br)C(C)(C)Br (stereo unspecified)	> 10 µM (inactive)	> 10 µM (inactive)		> 10 µM (inactive)	> 10 µM (inactive)	> 10 µM (inactive)	> 10 µM (inactive)	> 10 µM (inactive)	> 10 µM (inactive)	> 10 µM (inactive)	> 10 µM (inactive)	> 10 µM (inactive)	> 10 µM (inactive)	> 10 µM (inactive)	> 10 µM (inactive)	> 10 µM (inactive)	> 10 µM (inactive)	> 10 µM (inactive)	> 10 µM (inactive)	> 10 µM (inactive)
COC(=O)C1C(OS(=O)(=O)O)CCC2CN3CCc4c([nH]c5ccccc45)C3CC21 (stereo unspecified)		> 100 µM (inactive)	> 100 µM (inactive)	> 100 µM (inactive)	> 100 µM (inactive)	> 100 µM (inactive)	> 100 µM (inactive)	> 100 µM (inactive)	> 100 µM (inactive)	> 100 µM (inactive)	> 100 µM (inactive)	> 100 µM (inactive)	> 100 µM (inactive)	> 100 µM (inactive)	> 100 µM (inactive)	> 100 µM (inactive)	> 100 µM (inactive)	> 100 µM (inactive)	> 100 µM (inactive)	> 100 µM (inactive)
COc1ccc2c(c1)c1c(n2CCN2CCCCC2)-c2ccccc2CC1	6.78 µM (inactive)	32.1 µM (inactive)		4.48 µM (inactive)	14 µM (inactive)	15.9 µM (inactive)	17.9 µM (inactive)	16.6 µM (inactive)	18.3 µM (inactive)	13.5 µM (inactive)	11.6 µM (inactive)	16.4 µM (inactive)	14.9 µM (inactive)	13.8 µM (inactive)	17.2 µM (inactive)	14.5 µM (inactive)	8.97 µM (inactive)	14.8 µM (inactive)	14.3 µM (inactive)	14 µM (inactive)
O=C(/C=C\c1ccc(Cl)cc1Cl)c1cccs1		21.3 µM (inactive)	37.2 µM (inactive)	23.4 µM (inactive)	21.3 µM (inactive)	16.3 µM (inactive)	19.5 µM (inactive)	17 µM (inactive)	28.4 µM (inactive)	24.8 µM (inactive)		16.7 µM (inactive)	12 µM (inactive)	23.4 µM (inactive)	14.7 µM (inactive)	23.9 µM (inactive)	21.2 µM (inactive)	18.3 µM (inactive)	6.89 µM (inactive)	24.5 µM (inactive)
CC(C)(C)C(=O)OCC1CCC[N+]2(C)CCCCC12 (stereo unspecified)	> 100 µM (inactive)	> 100 µM (inactive)		> 100 µM (inactive)	> 100 µM (inactive)	> 100 µM (inactive)	> 100 µM (inactive)	> 100 µM (inactive)	> 100 µM (inactive)	> 100 µM (inactive)	> 100 µM (inactive)	> 100 µM (inactive)	> 100 µM (inactive)	> 100 µM (inactive)	> 100 µM (inactive)	> 100 µM (inactive)		> 100 µM (inactive)	> 100 µM (inactive)	> 100 µM (inactive)
C#C[C@]1(O)CC[C@H]2[C@@H]3CCC4=C/C(=N/CCOC(=O)c5cccc6c(=O)c7ccccc7[nH]c56)CC[C@@H]4[C@H]3CC[C@@]21C		32.4 µM (inactive)	23.1 µM (inactive)	64.3 µM (inactive)	35.7 µM (inactive)	28 µM (inactive)	43.2 µM (inactive)	90.2 µM (inactive)	33.5 µM (inactive)	35.2 µM (inactive)	29.5 µM (inactive)	15.7 µM (inactive)	21 µM (inactive)	53.6 µM (inactive)	40.4 µM (inactive)	32.7 µM (inactive)	31.4 µM (inactive)	23 µM (inactive)	26.1 µM (inactive)	45.8 µM (inactive)
CN(C)CCCNc1ccc2nnn3c4ccc(OC(=O)c5ccc([N+](=O)[O-])cc5)cc4c(=O)c1c23	5.64 µM (inactive)	2.61 µM (inactive)		2.55 µM (inactive)	0.849 µM (active)		11.7 µM (inactive)	2.95 µM (inactive)	10.9 µM (inactive)	9.77 µM (inactive)	1.07 µM (active)	9.04 µM (inactive)	2.26 µM (inactive)	4.09 µM (inactive)	1.5 µM (inactive)	0.467 µM (active)	1.32 µM (inactive)	5.6 µM (inactive)	2.27 µM (inactive)	5.82 µM (inactive)
C=C1C(=O)C=C2C=C3C(=O)C(C)(C)C[C@]3(O)C12C (stereo partly specified)	19.7 µM (inactive)	18.8 µM (inactive)	0.497 µM (active)	3.27 µM (inactive)	0.131 µM (active)	6.62 µM (inactive)	2.93 µM (inactive)	29.5 µM (inactive)	1.8 µM (inactive)	8.22 µM (inactive)	18 µM (inactive)	2.36 µM (inactive)	8.57 µM (inactive)	5.65 µM (inactive)	2.23 µM (inactive)	18.9 µM (inactive)	1.61 µM (inactive)	19 µM (inactive)		1.84 µM (inactive)
CC(=O)Nc1ccc(-c2nc3ccccc3s2)cc1O	30.6 µM (inactive)	34.8 µM (inactive)		34.7 µM (inactive)	22.2 µM (inactive)	20.4 µM (inactive)	31.6 µM (inactive)	> 100 µM (inactive)	94.8 µM (inactive)	50.1 µM (inactive)	20.9 µM (inactive)	78.2 µM (inactive)	19.8 µM (inactive)	27.8 µM (inactive)	27.3 µM (inactive)	28.6 µM (inactive)	2.22 µM (inactive)	52.6 µM (inactive)		32.4 µM (inactive)
CN1C/C(=C\c2cccs2)C(=O)/C(=C/c2cccs2)C1	19.5 µM (inactive)	28.6 µM (inactive)		18.7 µM (inactive)	5.27 µM (inactive)	38.5 µM (inactive)	30 µM (inactive)	30.5 µM (inactive)	29.3 µM (inactive)	> 100 µM (inactive)	18.9 µM (inactive)	18.3 µM (inactive)	20 µM (inactive)	46.7 µM (inactive)	25.9 µM (inactive)	24.3 µM (inactive)	75.2 µM (inactive)	53.8 µM (inactive)	15.7 µM (inactive)	38.1 µM (inactive)
C=C(C)[C@H]1CC23C(=O)C(C(=O)C(C)C)=C(O)[C@](C)(C[C@H]2C1(C)C)C3=O [LALIBINONE B]		35.7 µM (inactive)	15.2 µM (inactive)	11.9 µM (inactive)	8.3 µM (inactive)	17.7 µM (inactive)	24 µM (inactive)	25.8 µM (inactive)	16.1 µM (inactive)	23 µM (inactive)	12.5 µM (inactive)	15.6 µM (inactive)	17.9 µM (inactive)	18.1 µM (inactive)	16.6 µM (inactive)	17 µM (inactive)	16.5 µM (inactive)	15.1 µM (inactive)	15.3 µM (inactive)	20.2 µM (inactive)
